Consider 34 compounds from patent US20240398784A1, “C-LINKED ISOQUINOLINE AMIDES AS LRRK2 INHIBITORS, PHARMACEUTICAL COMPOSITIONS, AND USES THEREOF” (Merck Sharp & Dohme LLC, priority 2021, published 2024).

The target in this test is LRRK2 G2019S (Homo sapiens, UniProt Q5S007, G2019S). As to the kind of experiment: LRRK2 G2019S Km ATP LanthaScreen assay. Format: biochemical. To be noted: read-out: LRRK2 pIC50 (converted).
Sequence of LRRK2 G2019S (Q5S007 whole entry G2019S): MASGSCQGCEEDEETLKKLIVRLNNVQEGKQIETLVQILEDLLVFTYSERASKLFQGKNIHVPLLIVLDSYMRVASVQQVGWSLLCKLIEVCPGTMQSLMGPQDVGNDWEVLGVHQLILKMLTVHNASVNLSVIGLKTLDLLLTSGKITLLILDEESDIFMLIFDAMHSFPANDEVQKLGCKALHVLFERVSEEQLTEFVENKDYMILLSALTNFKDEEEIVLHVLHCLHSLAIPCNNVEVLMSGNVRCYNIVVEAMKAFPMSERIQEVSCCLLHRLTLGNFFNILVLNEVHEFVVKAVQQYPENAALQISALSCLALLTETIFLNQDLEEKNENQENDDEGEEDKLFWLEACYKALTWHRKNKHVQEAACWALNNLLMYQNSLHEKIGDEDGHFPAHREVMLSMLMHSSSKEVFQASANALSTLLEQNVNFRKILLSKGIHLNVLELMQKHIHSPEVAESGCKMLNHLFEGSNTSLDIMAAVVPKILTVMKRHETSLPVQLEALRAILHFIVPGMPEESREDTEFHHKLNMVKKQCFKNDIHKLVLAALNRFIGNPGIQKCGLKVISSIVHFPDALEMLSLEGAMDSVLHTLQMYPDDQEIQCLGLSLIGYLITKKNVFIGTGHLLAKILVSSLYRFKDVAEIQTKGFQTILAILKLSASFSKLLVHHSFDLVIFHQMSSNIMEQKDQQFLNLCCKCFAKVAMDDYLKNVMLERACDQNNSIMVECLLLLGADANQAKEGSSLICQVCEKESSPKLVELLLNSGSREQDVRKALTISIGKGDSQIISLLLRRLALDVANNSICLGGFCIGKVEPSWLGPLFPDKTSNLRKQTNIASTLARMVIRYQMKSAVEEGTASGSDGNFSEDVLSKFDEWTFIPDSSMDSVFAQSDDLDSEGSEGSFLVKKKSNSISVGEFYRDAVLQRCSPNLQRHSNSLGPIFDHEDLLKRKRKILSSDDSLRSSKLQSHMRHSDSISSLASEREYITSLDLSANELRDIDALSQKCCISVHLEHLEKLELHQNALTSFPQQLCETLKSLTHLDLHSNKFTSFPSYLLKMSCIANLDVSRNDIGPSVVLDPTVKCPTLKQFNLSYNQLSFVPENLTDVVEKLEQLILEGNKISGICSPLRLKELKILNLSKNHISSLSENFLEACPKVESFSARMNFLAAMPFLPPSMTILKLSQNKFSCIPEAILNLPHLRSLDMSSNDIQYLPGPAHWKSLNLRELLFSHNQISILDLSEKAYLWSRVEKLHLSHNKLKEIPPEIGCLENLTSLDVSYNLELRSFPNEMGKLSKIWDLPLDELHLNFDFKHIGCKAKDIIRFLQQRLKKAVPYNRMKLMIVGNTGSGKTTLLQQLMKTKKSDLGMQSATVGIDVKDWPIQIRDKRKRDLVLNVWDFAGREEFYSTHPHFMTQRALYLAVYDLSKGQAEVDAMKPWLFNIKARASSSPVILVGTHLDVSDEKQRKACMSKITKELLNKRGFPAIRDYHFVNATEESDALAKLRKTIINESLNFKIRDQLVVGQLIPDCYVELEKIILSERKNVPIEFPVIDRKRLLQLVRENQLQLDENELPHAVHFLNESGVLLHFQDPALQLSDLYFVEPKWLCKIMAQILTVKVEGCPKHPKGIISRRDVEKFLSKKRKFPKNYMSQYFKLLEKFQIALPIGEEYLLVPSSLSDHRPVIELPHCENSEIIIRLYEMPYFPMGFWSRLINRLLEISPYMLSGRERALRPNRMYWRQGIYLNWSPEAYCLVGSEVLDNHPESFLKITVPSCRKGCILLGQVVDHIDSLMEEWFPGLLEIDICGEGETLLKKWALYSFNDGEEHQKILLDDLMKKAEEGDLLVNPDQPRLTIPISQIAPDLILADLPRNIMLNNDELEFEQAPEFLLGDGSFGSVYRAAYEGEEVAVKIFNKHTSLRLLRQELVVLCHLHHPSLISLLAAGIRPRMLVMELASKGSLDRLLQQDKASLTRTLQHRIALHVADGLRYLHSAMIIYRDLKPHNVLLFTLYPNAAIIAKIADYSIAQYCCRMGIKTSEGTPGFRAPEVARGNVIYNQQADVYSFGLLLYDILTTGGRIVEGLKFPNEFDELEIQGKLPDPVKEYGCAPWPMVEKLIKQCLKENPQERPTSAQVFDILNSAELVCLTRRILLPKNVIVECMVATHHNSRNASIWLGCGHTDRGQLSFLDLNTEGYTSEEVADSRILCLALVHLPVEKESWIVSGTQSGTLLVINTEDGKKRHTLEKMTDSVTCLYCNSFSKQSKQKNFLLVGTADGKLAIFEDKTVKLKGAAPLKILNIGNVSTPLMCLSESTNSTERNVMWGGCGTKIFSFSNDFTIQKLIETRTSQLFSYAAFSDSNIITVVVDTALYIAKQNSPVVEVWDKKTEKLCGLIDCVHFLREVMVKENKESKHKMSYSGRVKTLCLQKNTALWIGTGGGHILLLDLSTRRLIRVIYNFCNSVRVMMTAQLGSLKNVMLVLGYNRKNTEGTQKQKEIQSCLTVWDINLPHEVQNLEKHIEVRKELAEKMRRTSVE

As for `CC1(N2CCC(c3cc4cc(NC(=O)C5CC5c5ccccn5)ncc4cc3Cl)CC2)CCOC1` (single isomer, unassigned) [Ex-6.35, N-(7-chloro-6-(1-(3-methyltetrahydrofuran-3-yl)piperidin-4-yl)isoquinolin-3-yl)-2-(pyridin-2-yl)cyclopropane-1-carboxamide], the IC50 is 6.61 nM.
On to `O=C(Nc1cc2cc(C3CCC(N4CC(F)(F)C4)CC3)c(Cl)cc2cn1)C1CC1c1ccccn1` (single isomer, unassigned) [Ex-5.6, N-(7-chloro-6-(4-(3,3-difluoroazetidin-1-yl)cyclohexyl)isoquinolin-3-yl)-2-(pyridin-2-yl)cyclopropane-1-carboxamide], for which the IC50 was 912 nM.
`Cc1cc2cnc(NC(=O)C3CC34CCOC4)cc2cc1C1CCN(C2(C)COCC2F)CC1` (single isomer, unassigned) [Ex-15.12, N-(6-(1-(4-fluoro-3-methyltetrahydrofuran-3-yl)piperidin-4-yl)-7-methylisoquinolin-3-yl)-5-oxaspiro[2.4]heptane-1-carboxamide]: the IC50 was 85.1 nM.
`CC1(N2CCC(c3cc4cc(NC(=O)C5CC5C(F)F)ncc4cc3Cl)CC2)COCC1O` (single isomer, unassigned) [Ex-4.43, N-(7-chloro-6-(1-(4-hydroxy-3-methyltetrahydrofuran-3-yl)piperidin-4-yl)isoquinolin-3-yl)-2-(difluoromethyl)cyclopropane-1-carboxamide]: the IC50 is 1.48 nM.
For `Cc1cc2cnc(NC(=O)C3CC34CCOC4)cc2cc1C1CCN(C2(C)COCC2F)CC1` (single isomer, unassigned) [Ex-15.14, N-(6-(1-(4-fluoro-3-methyltetrahydrofuran-3-yl)piperidin-4-yl)-7-methylisoquinolin-3-yl)-5-oxaspiro[2.4]heptane-1-carboxamide], the IC50 is 3.72 nM.
`CC1(N2CCC(c3cc4cc(NC(=O)C5CCC6(CCC6)OC5)ncc4cc3Cl)CC2)COCC1O` (single isomer, unassigned) [Ex-4.23, N-(7-chloro-6-(1-(4-hydroxy-3-methyltetrahydrofuran-3-yl)piperidin-4-yl)isoquinolin-3-yl)-5-oxaspiro[3.5]nonane-7-carboxamide]: the IC50 is 2.34 nM.
With `CC1(c2ccccn2)CC1C(=O)Nc1cc2cc(C3CCN(C4(C)COCC4O)CC3)c(Cl)cc2cn1` (stereo not shown) [Ex-2.90], the IC50 is 52.5 nM.
For the compound `CC(C(=O)Nc1cc2cc(C3CCN(C4(C)COCC4O)CC3)c(Cl)cc2cn1)c1cnn(C)c1` (stereo not shown) [Ex-2.107], the IC50 is 0.661 nM.
For `Cn1ncc(C2CC2C(=O)Nc2cc3cc(C4CCN(C5(C)COCC5O)CC4)c(Cl)cc3cn2)c1C(F)(F)F` (single isomer, unassigned) [Ex-4.37, N-(7-chloro-6-(1-(4-hydroxy-3-methyltetrahydrofuran-3-yl)piperidin-4-yl)isoquinolin-3-yl)-2-(1-methyl-5-(trifluoromethyl)-1H-pyrazol-4-yl)cyclopropane-1-carboxamide], the IC50 is 0.0813 nM.
Take `CC(C(=O)Nc1cc2cc(C3(C#N)CC34CC4)ccc2cn1)c1cnn(C)c1` (stereo not shown) [Ex-2.111]: the IC50 is 2.24 nM.
Under `CC1(C)CCC(C(=O)Nc2cc3cc(C4CCC(N5CCC(F)C5)CC4)c(Cl)cc3cn2)CO1` (single isomer, unassigned) [Ex-5.20, N-(7-chloro-6-(4-(3-fluoropyrrolidin-1-yl)cyclohexyl)isoquinolin-3-yl)-6,6-dimethyltetrahydro-2H-pyran-3-carboxamide] stands 10.5 nM.
Turning to `CC1(N2CCC(c3cc4cc(NC(=O)C5COC6(CCC6)C5)ncc4cc3Cl)CC2)COCC1O` (single isomer, unassigned) [Ex-4.18, N-(7-chloro-6-(1-(4-hydroxy-3-methyltetrahydrofuran-3-yl)piperidin-4-yl)isoquinolin-3-yl)-5-oxaspiro[3.4]octane-7-carboxamide], the IC50 is 0.166 nM.
`CC1(C)CCC(C(=O)Nc2cc3cc(C4CCC(N5CCC(F)C5)CC4)c(Cl)cc3cn2)CO1` (single isomer, unassigned) [Ex-5.17, N-(7-chloro-6-(4-(3-fluoropyrrolidin-1-yl)cyclohexyl)isoquinolin-3-yl)-6,6-dimethyltetrahydro-2H-pyran-3-carboxamide]: the IC50 is 5.62 nM.
With `CC(C)C1CC(C(=O)Nc2cc3cc(C4CCN(C5(C)COCC5O)CC4)c(Cl)cc3cn2)C1` (racemic) [Ex-1.22, Rac-N-(7-chloro-6-(1-(4-hydroxy-3-methyltetrahydrofuran-3-yl)piperidin-4-yl)isoquinolin-3-yl)-3-isopropylcyclobutane-1-carboxamide], the IC50 is 0.977 nM.
Under `CC(C)(O)C1CC1C(=O)Nc1cc2cc(C3CCN(C4(C)COCC4F)CC3)c(Cl)cc2cn1` (single isomer, unassigned) [Ex-6.27, N-(7-chloro-6-(1-(4-fluoro-3-methyltetrahydrofuran-3-yl)piperidin-4-yl)isoquinolin-3-yl)-2-(2-hydroxypropan-2-yl)cyclopropane-1-carboxamide] stands 112 nM.
For `CCOC1CC2(C1)CC2C(=O)Nc1cc2cc(C3CCN(C4(C)COCC4O)CC3)c(Cl)cc2cn1` (single isomer, unassigned) [Ex-4.32, N-(7-chloro-6-(1-(4-hydroxy-3-methyltetrahydrofuran-3-yl)piperidin-4-yl)isoquinolin-3-yl)-5-ethoxyspiro[2.3]hexane-1-carboxamide], the IC50 was 2.57 nM.
Turning to `Cn1cc(C2CC2C(=O)Nc2cc3cc(C4CC(N5CC(F)C5)C4)c(Cl)cc3cn2)cn1` (single isomer, unassigned) [Ex-5.25, N-(7-chloro-6-(3-(3-fluoroazetidin-1-yl)cyclobutyl)isoquinolin-3-yl)-2-(1-methyl-1H-pyrazol-4-yl)cyclopropane-1-carboxamide], the IC50 is 0.575 nM.
Take `O=C(Nc1cc2cc(C3CCN(C4COC4)CC3)c(Cl)cc2cn1)C1CC12CCC2` (racemic) [Ex-1.14, Rac-N-(7-chloro-6-(1-(oxetan-3-yl)piperidin-4-yl)isoquinolin-3-yl)spiro[2.3]hexane-1-carboxamide]: the IC50 is 1.35 nM.
For `COC1COCC1N1CCC(c2cc3cc(NC(=O)C4CC45CCOCC5)ncc3cc2Cl)CC1` (single isomer, unassigned) [Ex-6.52, N-(7-chloro-6-(1-(4-methoxytetrahydrofuran-3-yl)piperidin-4-yl)isoquinolin-3-yl)-6-oxaspiro[2.5]octane-1-carboxamide], the IC50 was 0.2 nM.
The same measure for `CC1(N2CCC(c3cc4cc(NC(=O)Cc5ccccn5)ncc4cc3Cl)CC2)COCC1O` (stereo not shown) [Ex-3.6]: 0.24 nM; for `O=C(Nc1cc2cc(C3CCN(C4COC4)CC3)c(Cl)cc2cn1)C1CC12CCOCC2` (racemic) [Ex-1.9, Rac-N-(7-chloro-6-(1-(oxetan-3-yl)piperidin-4-yl)isoquinolin-3-yl)-6-oxaspiro[2.5]octane-1-carboxamide]: 2.88 nM; for `COC1COCC1(C)N1CCC(c2cc3cc(NC(=O)C4CC45CCOCC5)ncc3cc2Cl)CC1` (single isomer, unassigned) [Ex-6.23, N-(7-chloro-6-(1-(4-methoxy-3-methyltetrahydrofuran-3-yl)piperidin-4-yl)isoquinolin-3-yl)-6-oxaspiro[2.5]octane-1-carboxamide]: 1.82 nM.
For `CC1CC1(C#N)c1ccc2cnc(NC(=O)C3CC3)cc2c1` (single isomer, unassigned) [Ex-18.6, (R or S)-N-(6-(1-cyano-2-methylcyclopropyl)isoquinolin-3-yl)cyclopropanecarboxamide], the IC50 is 60.3 nM.
In the case of `O=C(Nc1cc2cc(C3CCN(C4COC4)CC3)c(Cl)cc2cn1)[C@H]1C[C@H]1F` [Ex-1.13, (1R,2R)-N-(7-chloro-6-(1-(oxetan-3-yl)piperidin-4-yl)isoquinolin-3-yl)-2-fluorocyclopropane-1-carboxamide], the IC50 is 2.45 nM.
Turning to `CC(C)(O)C1CC(C(=O)Nc2cc3cc(C4CCN(C5(C)COCC5O)CC4)c(Cl)cc3cn2)C1` (stereo not shown) [Ex-2.13], the IC50 is 0.174 nM.
In the case of `CC(C(=O)Nc1cc2cc(C3CCN(C4(C)COCC4O)CC3)c(Cl)cc2cn1)c1cnn(C)c1` (stereo not shown) [Ex-2.106], the IC50 is 0.288 nM.
As to `CC(C)(O)c1cccc(CC(=O)Nc2cc3cc(C4(C#N)CC45CC5)ccc3cn2)c1` (single isomer, unassigned) [Ex-1.45, (R or S)-N-(6-(1-cyanospiro[2.2]pentan-1-yl)isoquinolin-3-yl)-2-(3-(2-hydroxypropan-2-yl)phenyl)acetamide], the IC50 was 12.9 nM.
Take `CC1(N2CCC(c3cc4cc(NC(=O)C5CC56CCOC6)ncc4cc3Cl)CC2)COCC1F` (single isomer, unassigned) [Ex-6.2, (R or S)-N-(7-chloro-6-(1-((3R,4R or 3S,4S)-4-fluoro-3-methyltetrahydrofuran-3-yl)piperidin-4-yl)isoquinolin-3-yl)-5-oxaspiro [2.4] heptane-1-carboxamide]: the IC50 is 112 nM.
Under `CCC1C(C(=O)Nc2cc3cc(C4CC45CC5)c(Cl)cc3cn2)C1c1cnn(C)c1` (stereo not shown) [Ex-2.99] stands 117 nM.
On to `CC1(N2CCC(c3cc4cc(NC(=O)C5CC56CCOCC6)ncc4cc3Cl)CC2)CCOC1` (stereo not shown) [Ex-2.23], for which the IC50 was 0.166 nM.
As to `O=C(Nc1cc2cc(C3CCN(C4COC4)CC3)c(Cl)cc2cn1)[C@@H]1CCCCO1` [Ex-1.10, (S)-N-(7-chloro-6-(1-(oxetan-3-yl)piperidin-4-yl)isoquinolin-3-yl)tetrahydro-2H-pyran-2-carboxamide], the IC50 was 3.98 nM.
For the compound `CC1(N2CCC(c3cc4cc(NC(=O)Cn5cc(Cl)cn5)ncc4cc3Cl)CC2)COCC1O` (stereo not shown) [Ex-3.9], the IC50 is 0.977 nM.
Take `CC1CC1(C#N)c1ccc2cnc(NC(=O)C3CC3)cc2c1` (single isomer, unassigned) [Ex-18.5, (R or S)-N-(6-(1-cyano-2-methylcyclopropyl)isoquinolin-3-yl)cyclopropanecarboxamide]: the IC50 is 5.75 nM.
For `Cc1cc2cnc(NC(=O)C3CC3c3ccccn3)cc2cc1C1CCN(C2(C)COCC2F)CC1` (single isomer, unassigned) [Ex-13.1, (1R,2R or 1S,2S)-N-(6-(1-((3R,4R or 3S,4S)-4-fluoro-3-methyltetrahydrofuran-3-yl)piperidin-4-yl)-7-methylisoquinolin-3-yl)-2-(pyridin-2-yl)cyclopropane-1-carboxamide], the IC50 was 2.51 nM.
